Source: ChEMBL document CHEMBL6092218 (J Med Chem, 2024)
Each block holds one compound with its values, some of them ahead of it. Activity calls are given as the source filed them. No cut-off for these calls is given here.

Legend:
[1] = Metabolic stability in human liver microsomes assessed as apparent intrinsic clearance at 1 uM measured upto 60 mins in presence of NADPH by LC-MS/MS analysis; type: ADME, Microsome; details: read-out: CLH
[2] = Apparent permeability of compound in dog RRCK cells measured after 1.5 hrs by LC-MS/MS analysis; details: MDCK
Cytochrome P450 3A4 = Cytochrome P450 3A4 (Homo sapiens, UniProt P08684); assay: Inhibition of CYP3A4 in human liver microsomes using midazolam as substrate incubated for 4 mins by LC-MS/SM analysis
[3] = Half-life in mouse at 30 mg/kg, po measured upto 24 hrs by LC-MS/MS analysis; type: ADME, organism-based; details: in vivo
[4] = Clearance in mouse blood at 30 mg/kg, po measured upto 24 hrs by LC-MS/MS analysis; type: ADME, organism-based; details: whole blood
MIA PaCa-2 [5] = assay: Antiproliferative activity against human MIA PaCa-2 cells incubated for 6 days by CyQUANT cell proliferation assay; type: functional, cell-based; details: MIA PaCa-2, 144 h
[6] = Bioavailability in mouse at 30 mg/kg, po measured upto 24 hrs by LC-MS/MS analysis; type: ADME, organism-based; details: in vivo
[7] = Volume of distribution at steady state in mouse at 30 mg/kg, po measured upto 24 hrs by LC-MS/MS analysis; type: ADME, organism-based; details: in vivo
MIA PaCa-2 [8] = assay: Antitumor activity against human MIA PaCa-2 cells xenografted in NSG mouse assessed as tumor growth inhibition at 10 mg/kg, po bid measured after 24 days by caliper method; type: functional; details: MIA PaCa-2, 576 h, time 24 day, read-out: TGI
MIA PaCa-2 [9] = assay: Antitumor activity against human MIA PaCa-2 cells xenografted in NSG mouse assessed as time duration of coverage of MIA PaCa-2 IC90 in plasma at 30 mg/kg, po qd; type: functional
MIA PaCa-2 [10] = assay: Antitumor activity against human MIA PaCa-2 cells xenografted in NSG mouse assessed as time duration of coverage of MIA PaCa-2 IC90 in plasma at 15 mg/kg, po qd; type: functional
MIA PaCa-2 [11] = assay: Antitumor activity against human MIA PaCa-2 cells xenografted in NSG mouse assessed as time duration of coverage of MIA PaCa-2 IC50 in plasma at 30 mg/kg, po qd; type: functional
[12] = Toxicity in NSG mouse xenografted in with human MIA PaCa-2 cells assessed as body weight loss at 15 to 30 mg/kg, po qd […]; type: organism-based; details: in vivo, dose 15-30 mg/kg
MIA PaCa-2 [13] = assay: Antitumor activity against human MIA PaCa-2 cells xenografted in NSG mouse assessed as time duration of coverage of MIA PaCa-2 IC50 in plasma at 10 mg/kg, po bid; type: functional
MIA PaCa-2 [14] = assay: Antitumor activity against human MIA PaCa-2 cells xenografted in NSG mouse assessed as tumor stasis at 15 mg/kg, po BID measured after 24 days; type: functional, organism-based; details: time 24.0 day
MIA PaCa-2 [15] = assay: Antitumor activity against human MIA PaCa-2 cells xenografted in NSG mouse assessed as time duration of coverage of MIA PaCa-2 IC90 in plasma at 10 mg/kg, po bid; type: functional
MIA PaCa-2 [16] = assay: Antitumor activity against human MIA PaCa-2 cells xenografted in NSG mouse assessed as tumor growth inhibition at 15 mg/kg, po bid measured after 24 days by caliper method; type: functional; details: MIA PaCa-2, 576 h, time 24 day, read-out: TGI
MIA PaCa-2 [17] = assay: Antitumor activity against human MIA PaCa-2 cells xenografted in NSG mouse assessed as time duration of coverage of MIA PaCa-2 IC50 in plasma at 15 mg/kg, po qd; type: functional
MIA PaCa-2 [18] = assay: Antitumor activity against human MIA PaCa-2 cells xenografted in NSG mouse assessed as time duration of coverage of MIA PaCa-2 IC90 in plasma at 15 mg/kg, po bid; type: functional
MIA PaCa-2 [19] = assay: Antitumor activity against human MIA PaCa-2 cells xenografted in po dosed NSG mouse assessed as reduction in tumor volume measured after 24 days by caliper method; type: functional, organism-based; details: time 24.0 day
MIA PaCa-2 [20] = assay: Antitumor activity against human MIA PaCa-2 cells xenografted in NSG mouse assessed as tumor stasis at 30 mg/kg, po qd measured after 24 days; type: functional, organism-based; details: time 24.0 day
MIA PaCa-2 [21] = assay: Antitumor activity against human MIA PaCa-2 cells xenografted in NSG mouse assessed as time duration of coverage of MIA PaCa-2 IC50 in plasma at 15 mg/kg, po bid; type: functional
[22] = Toxicity in NSG mouse xenografted in with human MIA PaCa-2 cells assessed as body weight loss at 10 to 15 mg/kg, po bid […]; type: organism-based; details: in vivo, dose 10-15 mg/kg
MIA PaCa-2 [23] = assay: Antitumor activity against human MIA PaCa-2 cells xenografted in NSG mouse assessed as tumor growth inhibition at 30 mg/kg, po qd measured after 24 days by caliper method; type: functional; details: MIA PaCa-2, 576 h, time 24 day, read-out: TGI
MIA PaCa-2 [24] = assay: Antitumor activity against human MIA PaCa-2 cells xenografted in NSG mouse assessed as tumor growth inhibition at 15 mg/kg, po qd measured after 24 days by caliper method; type: functional; details: MIA PaCa-2, 576 h, time 24 day, read-out: TGI

Cytochrome P450 3A4, sequence (P08684 whole entry): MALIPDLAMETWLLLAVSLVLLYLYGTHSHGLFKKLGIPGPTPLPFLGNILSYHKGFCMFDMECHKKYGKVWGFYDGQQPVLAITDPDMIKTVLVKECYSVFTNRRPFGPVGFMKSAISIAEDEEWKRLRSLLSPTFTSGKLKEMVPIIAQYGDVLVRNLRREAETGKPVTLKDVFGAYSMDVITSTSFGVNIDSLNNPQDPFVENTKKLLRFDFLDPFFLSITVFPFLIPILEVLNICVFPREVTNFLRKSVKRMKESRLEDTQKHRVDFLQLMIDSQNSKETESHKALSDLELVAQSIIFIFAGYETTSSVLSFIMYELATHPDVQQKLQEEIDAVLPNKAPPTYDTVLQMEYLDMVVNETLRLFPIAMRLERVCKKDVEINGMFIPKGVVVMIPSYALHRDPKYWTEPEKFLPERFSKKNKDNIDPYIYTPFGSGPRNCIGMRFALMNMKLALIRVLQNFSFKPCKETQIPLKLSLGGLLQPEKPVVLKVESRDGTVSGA

microsomal CLint at 1 µM [1]: 189 µL/min/mg
Structure (SMILES): Cc1cn(C)nc1Nc1cc2cc(-c3sncc3C)nc(N)c2cn1

microsomal CLint at 1 µM [1]: 31.8 µL/min/mg
Papp at 1.5 h [2]: 10.8 ×10⁻⁶ cm/s
IC50 (Cytochrome P450 3A4): 14500 nM
Structure (SMILES): Cc1cn(C)nc1Nc1cc2cc(-c3cn[nH]c3C)nc(N)c2cn1

microsomal CLint at 1 µM [1]: < 7 µL/min/mg
Papp at 1.5 h [2]: 13.3 ×10⁻⁶ cm/s
Structure (SMILES): Cn1nncc1-c1cc2cc(Nc3cc(C(C)(C)O)ccn3)ncc2c(N)n1

microsomal CLint at 1 µM [1]: 15.3 µL/min/mg
Structure (SMILES): Cc1cn(C)nc1Nc1cc2cc(-c3cnnn3C)nc(N)c2cn1

microsomal CLint at 1 µM [1]: 76.8 µL/min/mg
Papp at 1.5 h [2]: 5.2 ×10⁻⁶ cm/s
Structure (SMILES): CCn1nc(Nc2cc3cc(-c4cnnn4C)nc(N)c3cn2)c2c1[C@@H]1CC[C@H]2C(=O)N1C1CCC1

microsomal CLint at 1 µM [1]: 28.6 µL/min/mg
Papp at 1.5 h [2]: 44.4 ×10⁻⁶ cm/s
IC50 (Cytochrome P450 3A4): > 22400 nM
Structure (SMILES): Cc1cn(C)nc1Nc1cc2cc(C3CCc4nccn43)nc(N)c2cn1 (centres undefined)

microsomal CLint at 1 µM [1]: 8.2 µL/min/mg
Structure (SMILES): Cc1cn(C)nc1Nc1cc2cc(-c3cncn3C)nc(N)c2cn1

microsomal CLint at 1 µM [1]: < 7 µL/min/mg
half-life [3]: 3.8 h
CL/F [4]: 49.4 mL/min/kg
IC50 (MIA PaCa-2 [5]): 6.5 nM
bioavailability [6]: 3%
Papp at 1.5 h [2]: 6.4 ×10⁻⁶ cm/s
Vdss [7]: 2.8 L/kg
Structure (SMILES): CC[C@@](C)(N)c1ccnc(Nc2cc3cc(-c4cnnn4C)nc(N)c3cn2)c1

microsomal CLint at 1 µM [1]: 21.2 µL/min/mg
Structure (SMILES): Cc1cn(C)nc1Nc1cc2cc(-c3cnccn3)nc(N)c2cn1

microsomal CLint at 1 µM [1]: 41.1 µL/min/mg
T>IC90 (MIA PaCa-2 [9]): 16 h
T>IC90 (MIA PaCa-2 [10]): 9 h
T>IC50 (MIA PaCa-2 [11]): 24 h
half-life [3]: 12 h
T>IC50 (MIA PaCa-2 [13]): 21 h
CL/F [4]: 109 mL/min/kg
IC50 (MIA PaCa-2 [5]): 3 nM
T>IC90 (MIA PaCa-2 [15]): 16 h
T>IC50 (MIA PaCa-2 [17]): 15 h
bioavailability [6]: 96%
T>IC90 (MIA PaCa-2 [18]): 19 h
Papp at 1.5 h [2]: 11.1 ×10⁻⁶ cm/s
Vdss [7]: 4.9 L/kg
T>IC50 (MIA PaCa-2 [21]): 24 h
Structure (SMILES): CCC(N)(CC)c1ccnc(Nc2cc3cc(-c4cnnn4C)nc(N)c3cn2)c1
inhibition in vivo at 10 mg/kg (MIA PaCa-2 [8]): 58%
Activity [12]: Non-toxic
Activity (MIA PaCa-2 [14]): Active
inhibition in vivo at 15 mg/kg (MIA PaCa-2 [16]): 103%
Activity (MIA PaCa-2 [19]): Dose-dependent-effect
Activity (MIA PaCa-2 [20]): Active
Activity [22]: Non-toxic
inhibition in vivo at 30 mg/kg (MIA PaCa-2 [23]): 106%
inhibition in vivo at 15 mg/kg (MIA PaCa-2 [24]): 35%

microsomal CLint at 1 µM [1]: < 7 µL/min/mg
Papp at 1.5 h [2]: 1.7 ×10⁻⁶ cm/s
Structure (SMILES): Cn1nncc1-c1cc2cc(Nc3cc(C(C)(C)N)ccn3)ncc2c(N)n1

microsomal CLint at 1 µM [1]: 19.4 µL/min/mg
IC50 (MIA PaCa-2 [5]): 12.8 nM
Papp at 1.5 h [2]: 12.3 ×10⁻⁶ cm/s
Structure (SMILES): CCC(N)(CC)c1ccnc(Nc2cc3cc(N4CCOC4=O)nc(N)c3cn2)c1

microsomal CLint at 1 µM [1]: < 7 µL/min/mg
half-life [3]: 0.6 h
CL/F [4]: 124 mL/min/kg
IC50 (MIA PaCa-2 [5]): 14.5 nM
bioavailability [6]: 7%
Papp at 1.5 h [2]: 5.6 ×10⁻⁶ cm/s
Vdss [7]: 3.2 L/kg
Structure (SMILES): CC[C@](C)(N)c1ccnc(Nc2cc3cc(-c4cnnn4C)nc(N)c3cn2)c1

microsomal CLint at 1 µM [1]: 201 µL/min/mg
Papp at 1.5 h [2]: 5.2 ×10⁻⁶ cm/s
Structure (SMILES): Cn1nncc1-c1cc2cc(Nc3nn(C)c4c3[C@@H]3CC[C@H]4N(C4CCC4)C3)ncc2c(N)n1
